Assay results reported in article PMC10451632, “Site Mutation Improves the Expression and Antimicrobial Properties of Fungal Defense” (Antibiotics, 2023).
Values after ≈ are worked out from the molar mass of the structure shown. Like-named read-outs stand apart in the source and are kept apart here. Marks after values point to notes of the source that are not given here.

Experiments:
S. aureus ATCC 43300 [1] = assay: Time-killing curves; assay type: cell-based, Staphylococcus aureus
Experimental: S. aureus ATCC 43300 was cultured to the logarithmic stage, MHB medium was used for adjusting the concentration of bacterial suspension, and PN7 (1×, 2× and 4× MIC), Plectasin (1×, 2× and 4× MIC) and 2× MIC vancomycin (the MIC was 1 μg/mL) were added into the suspensions containing 10^5 CFU/mL bacteria (after the count of viable bacteria detection, the initial inoculation amount was 5.15 Log10 CFU/mL), cultured at 37 °C and 250 rpm. A 100 CFU/mL is considered the detection limit. […] In contrast, the count was reduced by 1.6 Log10 CFU/mL after treatment with 2× MIC vancomycin, an approximately 66% population decrease of target pathogens compared with the PN7 treatment group at the same time point of the second hour. After 4 h, the colony number of the peptide treatment group was almost 0, while that of the vancomycin treatment group was 0 after 8 h, at 4 h later than the PN7 treatment. At 24 h, the number of colonies of only 1× MIC Plectasin treatment group rebounded, while no such phenomenon occurred in the other treatment groups.
S. aureus ATCC 43300 was cultured to the logarithmic stage. MHB medium adjusted the concentration of bacterial suspension, and PN7 (1×, 2× and 4× MIC) was added into the suspensions containing 10^5 CFU/mL bacteria, cultured at 37 °C and 250 rpm. 1×, 2×, 4× MIC Plectasin and 2× MIC vancomycin were used as positive controls, and the group treated without antibiotics was used as the blank controls. Then, 100 μL samples were taken at different time points and were continuously diluted and coated on MHA medium for colony counting. A 100 CFU/mL is considered the detection limit.

S. aureus ATCC 43300 [2] = assay: Membrane permeability, PI staining by FACS; assay type: cell-based, Staphylococcus aureus; details: 2× MIC, 10^8 CFU/mL, 37 °C
Experimental: Figure 8 In vitro antimicrobial analysis of PN7. (A): Time-kill curve of PN7, Plectasin, and vancomycin against S. aureus ATCC. All experiments were performed in triplicate. (B): The PAE of 1×, 2× and 4× MIC of PN7 and vancomycin against S. aureus ATCC 43300 (the MIC values of PN7 and vancomycin against S. aureus ATCC 43300 were 8 μg/mL and 1μg/mL, respectively). All experiments were performed in triplicate. (C): The morphological influence of PN7 on S. aureus ATCC 43300 was observed by SEM. (D,E): The effects of PN7 (D) and Plectasin (E)) on membrane permeability were analyzed by FACS. The logarithmic phase S. aureus ATCC 43300 cells (10^8 CFU/mL) were incubated with or without 2× MIC peptide solutions at 37 °C at different times. All experiments were performed in triplicate. Ple stands for the Plectasin treatment group, Van stands for the vancomycin treatment group, and CK stands for the untreated group. TEXT PRINTED IN THE PICTURE: (D) PN7: 34.4% (2×; 90min); 31.2% (2×; 75min); 30.4% (2×; 60min); 19.2% (2×; 45min); 16.7% (2×; 30min); 1.94% (2×; 15min) | (E) Ple: 32.0% (2×; 90min); 27.4% (2×; 75min); 25.2% (2×; 60min); 12.8% (2×; 45min); 12.0% (2×; 30min); 2.11% (2×; 15min) DOUBTS OF THE COPYIST ABOUT THIS PICTURE: Panels D and E: the picture prints no measure for the percentages, only labels such as "2×PN7-90min: 34.4%" / Panels D and E: "CK: 0.54%" is the untreated control, not a substance, and was left out
The fluorescent dye propidium iodide (PI; Solarbio, Beijing, China) was used to detect the effect of PN7 on the membrane permeability of Staphylococcus aureus. The test method refers to the descriptions in previous studies.

E. coli O157 = details: data cited from previous results; cited from earlier work
From the text: (§1) Table 6 Antibacterial spectrum (MIC). | column: MIC (μg/mL) / Plectasin

[3] = test system: Escherichia coli CVCC 195; details: data cited from previous results; cited from earlier work
From the text: as §1

P. aeruginosa CICC 21630 = details: data cited from previous results; cited from earlier work
From the text: as §1

S. aureus CVCC 546 = details: data cited from previous results; cited from earlier work
From the text: as §1

S. aureus E48 = details: data cited from previous results; cited from earlier work
From the text: as §1

S. pullorum CVCC 1789 = details: data cited from previous results; cited from earlier work
From the text: as §1

[4] = test system: Staphylococcus aureus ATCC 43300; details: data cited from previous results; cited from earlier work
From the text: as §1

[5] = test system: Streptococcus. suis CVCC 606; details: data cited from previous results; cited from earlier work
From the text: as §1

[6] = test system: Staphylococcus aureus ATCC 43300; assay: microbe, parasite or virus in culture; assay type: cell-based; details: Staphylococcus aureus, ATCC43300; microtiter broth dilution, MHB, 10^5 CFUs/mL, 16–18 h at 37 °C; read-out: MIC
Experimental: The experimental operation of the expression of the Plectasin variant in P. pastoris in well plates, shaking flasks, and 5 L level fermentation was performed as referenced in previous studies. Candidates were identified through three different levels of screening. Firstly, a large number of transformants were screened through well plates to induce expression and determined by the inhibition zone assay (against S. aureus ATCC 43300). Secondly, the transformants with obvious inhibition zones were sequenced to obtain protein sequence information, then induced expression at the shake level. The supernatant was collected and purified to obtain the target protein; the anti-Staphylococcus aureus activity of the protein was detected by a MIC assay. Finally, the codons of candidate sequences were optimized, the expression vector was reconstructed, the optimal transformers were obtained, and the high-density cultivation was performed in a 5 L fermenter. The final agent was determined by high protein yield and good activity (Figure 2).
The MIC value of PN7 against bacteria was determined by the microtiter broth dilution method. Briefly, bacteria grown to the exponential phase were diluted into MHB; subsequently, 90 μL of bacterial suspension (10^5 CFUs/mL) was mixed with 10 μL of different concentrations of PN7 in a sterilized 96-well microtiter plate (Nunc). MIC values were recorded after incubation for 16–18 h at 37 °C based on the lowest concentrations of peptides in which no visible bacterial growth was observed.

S. aureus ATCC 43300 [7] = assay: Post antibiotic effect (PAE); assay type: cell-based, Staphylococcus aureus; details: triplicate
From the text: The post-antibiotic effect reflects the inhibitory effect on the growth of pathogenic bacteria after short contact with drugs, which is related to the strength of the bactericidal activity of drugs. The test method of the PAE of PN7 against S. aureus ATCC 43300 refers to the descriptions in previous studies.

In the case of CC[C@H](C)[C@@H]1NC(=O)[C@H](CO)NC(=O)[C@H](CCCCN)NC(=O)[C@@H]2CSSC[C@@H](C(=O)N[C@@H](Cc3ccc(O)cc3)C(=O)O)NC(=O)[C@H](CCCCN)NC(=O)[C@@H]3CSSC[C@H](NC(=O)[C@H](CCC(N)=O)NC(=O)[C@H](CCSC)NC(=O)[C@H](CC(=O)O)NC(=O)[C@H](CC(=O)O)NC(=O)[C@H](CCC(=O)O)NC(=O)[C@H](CC(=O)O)NC(=O)[C@H](Cc4c[nH]c5ccccc45)NC(=O)[C@@H]4CCCN4C(=O)CNC(=O)[C@H](CC(N)=O)NC(=O)[C@@H](NC(=O)CNC(=O)[C@H](Cc4ccccc4)NC(=O)CN)CSSC[C@H](NC(=O)[C@H](Cc4ccc(O)cc4)NC(=O)CNC(=O)CNC(=O)[C@H](CCCCN)NC(=O)[C@H](Cc4ccc(O)cc4)NC(=O)CNC(=O)[C@H](CCCCN)NC1=O)C(=O)N[C@@H](C)C(=O)N[C@@H](CCCCN)C(=O)NCC(=O)NCC(=O)N[C@@H](Cc1ccccc1)C(=O)N[C@@H](C(C)C)C(=O)N3)C(=O)N[C@@H](Cc1c[nH]cn1)C(=O)N[C@@H](CC(N)=O)C(=O)N[C@@H](Cc1c[nH]cn1)C(=O)N2 [Plectasin], the “number of colonies at 24 h” value (S. aureus ATCC 43300 [1]; 1× MIC, time-kill) is reported as “rebounded”, the “PI-staining percentage of cells” value (S. aureus ATCC 43300 [2]; 30 min) is reported as 12.0% and the “PI-staining percentage of cells” value (S. aureus ATCC 43300 [2]; 60 min) is reported as 25.2%. For the same compound, the “PI-staining percentage of cells” value (S. aureus ATCC 43300 [2]; 90 min) was 32.0%, the MIC (E. coli O157) was >128 ^a μg/mL and the MIC [3] was >128 ^a μg/mL. The MIC (P. aeruginosa CICC 21630) was >128 ^a μg/mL, the MIC (S. aureus CVCC 546) was 16 ^a μg/mL and the MIC (S. aureus E48) was 4 ^a μg/mL. The MIC (S. pullorum CVCC 1789) was >128 ^a μg/mL, the MIC [4] was 4 ^a μg/mL and the MIC [5] was 1 ^a μg/mL.
For CN[C@H](CC(C)C)C(=O)N[C@H]1C(=O)N[C@@H](CC(N)=O)C(=O)N[C@H]2C(=O)N[C@H]3C(=O)N[C@H](C(=O)N[C@H](C(=O)O)c4cc(O)cc(O)c4-c4cc3ccc4O)[C@H](O)c3ccc(c(Cl)c3)Oc3cc2cc(c3O[C@@H]2O[C@H](CO)[C@@H](O)[C@H](O)[C@H]2O[C@H]2C[C@](C)(N)[C@H](O)[C@H](C)O2)Oc2ccc(cc2Cl)[C@H]1O [vancomycin, reference compound], the MIC [6] was 1 µg/mL (≈ 0.69 µM), the “reduction of bacterial counts during the first two hours” value (S. aureus ATCC 43300 [1]; 2× MIC, initial inoculum 5.15 Log10 CFU/mL, MHB, 37 °C, 250 rpm, triplicate) was 1.6 Log10 CFU/mL and the “time to kill 99% of S. aureus ATCC 43300” value (S. aureus ATCC 43300 [1]; time-kill, 2× MIC) was 8 h. For the same compound, the “time after which the colony number was (almost) 0” value (S. aureus ATCC 43300 [1]; time-kill, detection limit 100 CFU/mL, vancomycin at 2× MIC) was 8 h, the PAE (S. aureus ATCC 43300 [7]; 1× MIC) was 0.11 h and the PAE (S. aureus ATCC 43300 [7]; 2× MIC) was 0.54 h. The PAE (S. aureus ATCC 43300 [7]; 4× MIC) was 0.78 h.
